Experimental data reported in PubChem BioAssay AID1963433 (Molecular Pharmacology Branch, DTP, NCI, 2024).
Values joined by “and” are separate entries in the source; they are usually repeats but may differ in a detail not shown here. Equal values may be shown once.

Tested on: 772245-204-R-J1-PDC complex spheroid growth
Test: Anticancer human tumor 772245-204-R-J1-PDC patient-derived rhabdomyosarcoma cell line growth inhibition [Asc]
Conditions: for viability, T/C: stronger effect = lower value
Procedure, shortened: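 Stromal components (HUVEC and hMSC) are co-assembled with the cancer cells into multicellular spheroids. Drugs are then added singly or paired, at concentrations falling by half-log increments from a clinically achievable maximum, capped at 10 microM without known Cmax.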

[1] = curve of first compound, second compound 0.01 µM
[2] = curve of first compound, second compound 0.0316 µM
[3] = curve of first compound, second compound 0.1 µM
[4] = curve of first compound, second compound 0.316 µM
[5] = curve of first compound, second compound 1 µM
[6] = second compound 0.01 µM, first compound 0.00949 µM
[7] = second compound 0.01 µM, first compound 0.03 µM
[8] = second compound 0.01 µM, first compound 0.0949 µM
[9] = second compound 0.01 µM, first compound 0.3 µM
[10] = second compound 0.01 µM, first compound 0.949 µM
[11] = second compound 0.01 µM, first compound 3 µM
[12] = second compound 0.0316 µM, first compound 0.00949 µM
[13] = second compound 0.0316 µM, first compound 0.03 µM
[14] = second compound 0.0316 µM, first compound 0.0949 µM
[15] = second compound 0.0316 µM, first compound 0.3 µM
[16] = second compound 0.0316 µM, first compound 0.949 µM
[17] = second compound 0.0316 µM, first compound 3 µM
[18] = second compound 0.1 µM, first compound 0.00949 µM
[19] = second compound 0.1 µM, first compound 0.03 µM
[20] = second compound 0.1 µM, first compound 0.0949 µM
[21] = second compound 0.1 µM, first compound 0.3 µM
[22] = second compound 0.1 µM, first compound 0.949 µM
[23] = second compound 0.1 µM, first compound 3 µM
[24] = second compound 0.316 µM, first compound 0.00949 µM
[25] = second compound 0.316 µM, first compound 0.03 µM
[26] = second compound 0.316 µM, first compound 0.0949 µM
[27] = second compound 0.316 µM, first compound 0.3 µM
[28] = second compound 0.316 µM, first compound 0.949 µM
[29] = second compound 0.316 µM, first compound 3 µM
[30] = second compound 1 µM, first compound 0.00949 µM
[31] = second compound 1 µM, first compound 0.03 µM
[32] = second compound 1 µM, first compound 0.0949 µM
[33] = second compound 1 µM, first compound 0.3 µM
[34] = second compound 1 µM, first compound 0.949 µM
[35] = second compound 1 µM, first compound 3 µM
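Also: compound exposure lasted seven days.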
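For viability, T/C in this document: 100% = DMSO vehicle control viability.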

Cc1nc(N2CCC3(CC2)COC(C)C3N)c(CO)nc1Sc1ccnc(N)c1Cl (centres undefined) + CNC(C)C(=O)NC1CN(S(=O)(=O)c2cccc(S(=O)(=O)N3CCC4CCC(C(=O)NC(c5ccccc5)c5ccccc5)N4C(=O)C(NC(=O)C(C)NC)C3)c2)CCC2CCC(C(=O)NC(c3ccccc3)c3ccccc3)N2C1=O
IC50 (curve of first compound, second compound 0.00316 µM): > 3 µM | IC50 [1]: > 3 µM | IC50 [2]: > 3 µM | IC50 [3]: > 3 µM | IC50 [4]: > 3 µM | IC50 [5]: > 3 µM | viability, T/C (second compound 0.00316 µM, first compound 0.00949 µM): 101% | viability, T/C (second compound 0.00316 µM, first compound 0.03 µM): 105% | viability, T/C (second compound 0.00316 µM, first compound 0.0949 µM): 109% | viability, T/C (second compound 0.00316 µM, first compound 0.3 µM): 105% | viability, T/C (second compound 0.00316 µM, first compound 0.949 µM): 115% | viability, T/C (second compound 0.00316 µM, first compound 3 µM): 92.9% | viability, T/C [6]: 108% | viability, T/C [7]: 93.4% | viability, T/C [8]: 107% | viability, T/C [9]: 117% | viability, T/C [10]: 102% | viability, T/C [11]: 75.4% | viability, T/C [12]: 104% | viability, T/C [13]: 99.3% | viability, T/C [14]: 105% | viability, T/C [15]: 101% | viability, T/C [16]: 88.3% | viability, T/C [17]: 78.6% | viability, T/C [18]: 105% | viability, T/C [19]: 99.1% | viability, T/C [20]: 88.4% | viability, T/C [21]: 98.6% | viability, T/C [22]: 99.6% | viability, T/C [23]: 75.9% | viability, T/C [24]: 101% | viability, T/C [25]: 90.6% | viability, T/C [26]: 91.4% | viability, T/C [27]: 99.1% | viability, T/C [28]: 86.8% | viability, T/C [29]: 74.7% | viability, T/C [30]: 95.8% | viability, T/C [31]: 89% | viability, T/C [32]: 104% | viability, T/C [33]: 90.6% | viability, T/C [34]: 93.6% | viability, T/C [35]: 66.9%

Cc1nc(N2CCC3(CC2)COC(C)C3N)c(CO)nc1Sc1ccnc(N)c1Cl (centres undefined) + Cc1c(S(C)(=O)=O)c(-c2cc(F)cc(N3CCN(c4ccc(NS(=O)(=O)c5ccc(NC(CCN6CCC(C(=O)OCCCP(=O)(O)O)CC6)CSc6ccccc6)c(S(=O)(=O)C(F)(F)F)c5)cc4)CC3)c2)c(-c2ccc(Cl)cc2)n1C(C)C
IC50 [3]: 2.23 µM | IC50 [4]: 0.644 µM | IC50 [5]: 0.369 µM | IC50 (curve of first compound, second compound 3.16 µM): 0.0862 µM | IC50 (curve of first compound, second compound 10 µM): 0.444 µM | viability, T/C [18]: 90.3% | viability, T/C [19]: 90.2% | viability, T/C [20]: 85% | viability, T/C [21]: 71% | viability, T/C [22]: 63.7% | viability, T/C [23]: 45.4% | viability, T/C [24]: 72.6% | viability, T/C [25]: 76.3% | viability, T/C [26]: 70.9% | viability, T/C [27]: 57% | viability, T/C [28]: 46.8% | viability, T/C [29]: 31.2% | viability, T/C [30]: 47.4% | viability, T/C [31]: 63.7% | viability, T/C [32]: 68.6% | viability, T/C [33]: 47.9% | viability, T/C [34]: 38.3% | viability, T/C [35]: 20.3% | viability, T/C (second compound 3.16 µM, first compound 0.00949 µM): 60.9% | viability, T/C (second compound 3.16 µM, first compound 0.03 µM): 49.7% | viability, T/C (second compound 3.16 µM, first compound 0.0949 µM): 54.9% | viability, T/C (second compound 3.16 µM, first compound 0.3 µM): 37.9% | viability, T/C (second compound 3.16 µM, first compound 0.949 µM): 32.4% | viability, T/C (second compound 3.16 µM, first compound 3 µM): 14.5% | viability, T/C (second compound 10 µM, first compound 0.00949 µM): 52.1% | viability, T/C (second compound 10 µM, first compound 0.03 µM): 61.2% | viability, T/C (second compound 10 µM, first compound 0.0949 µM): 60.9% | viability, T/C (second compound 10 µM, first compound 0.3 µM): 55.4% | viability, T/C (second compound 10 µM, first compound 0.949 µM): 38.7% | viability, T/C (second compound 10 µM, first compound 3 µM): 16.4%

NC(=O)C(=Cn1cnc(-c2cc(C(F)(F)F)cc(C(F)(F)F)c2)n1)c1cncnc1
viability, T/C (compound 0.000949 µM): 92.1% and 79.1% and 89.4% | viability, T/C (compound 0.003 µM): 94.4% and 79.8% and 83.2% | viability, T/C (compound 0.00949 µM): 89.3% and 86.5% and 108% | viability, T/C (compound 0.03 µM): 69.9% and 55.1% and 101% | viability, T/C (compound 0.0949 µM): 49.8% and 38% and 82.4% | viability, T/C (compound 0.3 µM): 49.2% and 25.1% and 59.7% | IC50 (curve of compound): 0.136 µM and 0.0413 µM and > 0.3 µM

CCN1C(C(=O)NC23CCC(C(=O)O)(CC2)CC3)C(c2cccc(Cl)c2F)C2(C(=O)Nc3cc(Cl)ccc32)C12CCCCC2 (centres undefined) + CNC(C)C(=O)NC1CN(S(=O)(=O)c2cccc(S(=O)(=O)N3CCC4CCC(C(=O)NC(c5ccccc5)c5ccccc5)N4C(=O)C(NC(=O)C(C)NC)C3)c2)CCC2CCC(C(=O)NC(c3ccccc3)c3ccccc3)N2C1=O
IC50 [1]: > 3 µM | IC50 [2]: > 3 µM | IC50 [3]: > 3 µM | IC50 [4]: > 3 µM | IC50 [5]: > 3 µM | viability, T/C [6]: 103% | viability, T/C [7]: 106% | viability, T/C [8]: 111% | viability, T/C [9]: 96.1% | viability, T/C [10]: 80.3% | viability, T/C [11]: 77.4% | viability, T/C [12]: 97.7% | viability, T/C [13]: 105% | viability, T/C [14]: 98.2% | viability, T/C [15]: 90.9% | viability, T/C [16]: 93.3% | viability, T/C [17]: 75.7% | viability, T/C [18]: 97.9% | viability, T/C [19]: 102% | viability, T/C [20]: 88.5% | viability, T/C [21]: 91% | viability, T/C [22]: 82.2% | viability, T/C [23]: 65.2% | viability, T/C [24]: 96.6% | viability, T/C [25]: 96.4% | viability, T/C [26]: 98.6% | viability, T/C [27]: 92.3% | viability, T/C [28]: 86.8% | viability, T/C [29]: 105% | viability, T/C [30]: 103% | viability, T/C [31]: 105% | viability, T/C [32]: 96.2% | viability, T/C [33]: 89.1% | viability, T/C [34]: 86.4% | viability, T/C [35]: 76.3%

C=C(F)C(=O)N1CCN(c2nc(OCC3CCCN3C)nc3c2CCN(c2cccc4cccc(Cl)c24)C3)CC1CC#N (centres undefined) + CNC(C)C(=O)NC1CN(S(=O)(=O)c2cccc(S(=O)(=O)N3CCC4CCC(C(=O)NC(c5ccccc5)c5ccccc5)N4C(=O)C(NC(=O)C(C)NC)C3)c2)CCC2CCC(C(=O)NC(c3ccccc3)c3ccccc3)N2C1=O
IC50 [1]: 5.51 µM | IC50 [2]: 6.3 µM | IC50 [3]: 4.84 µM | IC50 [4]: 4.88 µM | IC50 [5]: 4.84 µM | viability, T/C (second compound 0.01 µM, first compound 0.0316 µM): 98.8% | viability, T/C (second compound 0.01 µM, first compound 0.1 µM): 102% | viability, T/C (second compound 0.01 µM, first compound 0.316 µM): 91.3% | viability, T/C (second compound 0.01 µM, first compound 1 µM): 108% | viability, T/C (second compound 0.01 µM, first compound 3.16 µM): 87.2% | viability, T/C (second compound 0.01 µM, first compound 10 µM): 9.53% | viability, T/C (second compound 0.0316 µM, first compound 0.0316 µM): 112% | viability, T/C (second compound 0.0316 µM, first compound 0.1 µM): 105% | viability, T/C (second compound 0.0316 µM, first compound 0.316 µM): 97.5% | viability, T/C (second compound 0.0316 µM, first compound 1 µM): 99.7% | viability, T/C (second compound 0.0316 µM, first compound 3.16 µM): 97.6% | viability, T/C (second compound 0.0316 µM, first compound 10 µM): 18% | viability, T/C (second compound 0.1 µM, first compound 0.0316 µM): 100% | viability, T/C (second compound 0.1 µM, first compound 0.1 µM): 91.1% | viability, T/C (second compound 0.1 µM, first compound 0.316 µM): 95% | viability, T/C (second compound 0.1 µM, first compound 1 µM): 94.4% | viability, T/C (second compound 0.1 µM, first compound 3.16 µM): 79.2% | viability, T/C (second compound 0.1 µM, first compound 10 µM): 0.25% | viability, T/C (second compound 0.316 µM, first compound 0.0316 µM): 98% | viability, T/C (second compound 0.316 µM, first compound 0.1 µM): 94.1% | viability, T/C (second compound 0.316 µM, first compound 0.316 µM): 84.4% | viability, T/C (second compound 0.316 µM, first compound 1 µM): 105% | viability, T/C (second compound 0.316 µM, first compound 3.16 µM): 80.2% | viability, T/C (second compound 0.316 µM, first compound 10 µM): 0.26% | viability, T/C (second compound 1 µM, first compound 0.0316 µM): 93.5% | viability, T/C (second compound 1 µM, first compound 0.1 µM): 106% | viability, T/C (second compound 1 µM, first compound 0.316 µM): 87.1% | viability, T/C (second compound 1 µM, first compound 1 µM): 82.9% | viability, T/C (second compound 1 µM, first compound 3.16 µM): 81.4% | viability, T/C (second compound 1 µM, first compound 10 µM): 0.98%
